The series deals with rodent carcinogenicity bioassays, tumor incidence. Description: CCRIS carcinogenicity studies. The essentials:
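NCI-built, expert-reviewed records of carcinogenicity and related test outcomes (mutagenicity, tumor promotion/inhibition) compiled from published and report sources, historical span 1985-2011, not updated.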

Calls of active or inactive are those of the source. How the calls were made is not given here.

As to `C=CC(O)c1ccc(OC)cc1` (stereo not given), the carcinogen call (Species: MOUSE, Strain/Sex: CD-1/MALE, Route: SUBCUTANEOUS, Dose: 0, 0.17 UMOL IN 0.025 ML TRIOCTANOIN WITHIN 24 H AFTER BIRTH THEN 0, 0.47 UMOL IN 0.05 ML TRIOCTANOIN ON D 8, 0, 0.95 UM, Dose: 0, 0.17 UMOL IN 0.025 ML TRIOCTANOIN WITHIN 24 H AFTER BIRTH THEN 0, 0.47 UMOL IN 0.05 ML TRIOCTANOIN ON D 8, 0, 0.95 µM, Tumor Site: Type of Lesion: LIVER: HEPATOCELLULAR CARCINOMA) was “active; positive”.
Turning to `CNc1ccc(N)cc1`, the carcinogen call (Species: MOUSE, Strain/Sex: B6C3F1/MALE, Route: INTRAPERITONEAL, Dose: 0, 0.15 UMOL/G ONCE IN SODIUM ACETATE BUFFER (STUDY DURATION: 10 MO)) was “inactive; negative”.
`CN1C(=O)C(O)N=C(c2ccccc2)c2cc(Cl)ccc21` (stereo not given): the carcinogen call is “inactive; negative” (Species: MOUSE, Strain/Sex: CD-1/FEMALE, Route: ORAL, Dose: 0, 10, 80, 160 MG/KG/D IN DIET FOR 18 MO (STUDY DURATION: 18 MO), Dose: 0, 10, 80, 160 MG/KG/D IN DIET FOR 18 MO (STUDY DURATION: 18 MO)); “inactive; negative” (Species: MOUSE, Strain/Sex: CD-1/MALE, Route: ORAL, Dose: 0, 10, 80, 160 MG/KG/D IN DIET FOR 18 MO (STUDY DURATION: 18 MO), Dose: 0, 10, 80, 160 MG/KG/D IN DIET FOR 18 MO (STUDY DURATION: 18 MO)); “inactive; negative” (Species: RAT, Strain/Sex: STRAIN-CD/FEMALE, Route: ORAL, Dose: 0, 10, 40, 160 MG/KG/D IN DIET FOR 2 YR (STUDY DURATION: 2 YR), Dose: 0, 10, 40, 160 MG/KG/D IN DIET FOR 2 YR (STUDY DURATION: 2 YR)); “inactive; negative” (Species: RAT, Strain/Sex: STRAIN-CD/MALE, Route: ORAL, Dose: 0, 10, 40, 160 MG/KG/D IN DIET FOR 2 YR (STUDY DURATION: 2 YR), Dose: 0, 10, 40, 160 MG/KG/D IN DIET FOR 2 YR (STUDY DURATION: 2 YR)).
`CCC(C)[N+](=O)[O-]` (stereo not given): the carcinogen call (Species: RAT, Strain/Sex: F344/MALE, Route: GAVAGE, Dose: 0, 2 MMOL/KG BW 1/WK FOR 50 WK (STUDY DURATION: 83 WK), Tumor Site: Type of Lesion: LIVER: CARCINOMA) is “active; positive”.
As to `O=C(O)[C@H]1O[C@@H](N(O)c2ccc3c(c2)Cc2ccccc2-3)[C@H](O)[C@@H](O)[C@@H]1O`, the carcinogen call (Species: RAT, Strain/Sex: F344/MALE, Route: INJECTION, Dose: 0, 1 UMOL IN 0.5 ML OF SOLUTION CONTAINING 0.4 ML PHOSPHATE BUFFERED SALINE/ GENTAMYCIN (PH 7) AND 0.1 ML DMSO INJECTED, Tumor Site: Type of Lesion: BLADDER: CARCINOMA) was “active; positive”.
Take `C=CC=O`: the carcinogen call (Species: MOUSE, Strain/Sex: B6C3F1/FEMALE, Route: INTRAPERITONEAL, Dose: 0, 75 NMOL TOTAL DOSE, 1/3 AND 2/3 OF THE TOTAL DOSE ADMINISTERED AT 8 AND 15 DAYS OF AGE RESPECTIVELY, ANIMALS TERMINAT) is “inactive; negative”; the carcinogen call (Species: MOUSE, Strain/Sex: B6C3F1/FEMALE, Route: INTRAPERITONEAL, Dose: 0, 150 NMOL TOTAL DOSE, 1/3 AND 2/3 OF THE TOTAL DOSE ADMINISTERED AT 8 AND 15 DAYS OF AGE RESPECTIVELY, ANIMALS TERMINA) is “inactive; negative”; the carcinogen call (Species: MOUSE, Strain/Sex: B6C3F1/MALE, Route: INTRAPERITONEAL, Dose: 0, 75 NMOL TOTAL DOSE, 1/3 AND 2/3 OF THE TOTAL DOSE ADMINISTERED AT 8 AND 15 DAYS OF AGE RESPECTIVELY, ANIMALS TERMINAT) was “inactive; negative”; the carcinogen call (Species: MOUSE, Strain/Sex: B6C3F1/MALE, Route: INTRAPERITONEAL, Dose: 0, 150 NMOL TOTAL DOSE, 1/3 AND 2/3 OF THE TOTAL DOSE ADMINISTERED AT 8 AND 15 DAYS OF AGE RESPECTIVELY, ANIMALS TERMINA) is “inactive; negative”; the carcinogen call (Species: MOUSE, Strain/Sex: CD-1/FEMALE, Route: GAVAGE, Dose: 0, 0.5, 2, 4.5 MG/KG (STABILIZED WITH 0.25%-0.3% HYDROQUINONE) 1/D FOR 18 MO (STUDY DURATION: 18 MO), Dose: 0, 0.5, 2, 4.5 MG/KG (STABILIZED WITH 0.25%-0.3% HYDROQUINONE) 1/D FOR 18 MO (STUDY DURATION: 18 MO)) is “inactive; negative”; the carcinogen call (Species: MOUSE, Strain/Sex: CD-1/MALE, Route: GAVAGE, Dose: 0, 0.5, 2, 4.5 MG/KG (STABILIZED WITH 0.25%-0.31 HYDROQUINONE) 1/D FOR 18 MO (STUDY DURATION: 18 MO), Dose: 0, 0.5, 2, 4.5 MG/KG (STABILIZED WITH 0.25%-0.31 HYDROQUINONE) 1/D FOR 18 MO (STUDY DURATION: 18 MO)) is “inactive; negative”. Further, the carcinogen call by setting is: (Species: RAT, Strain/Sex: F344/FEMALE, Route: ORAL, Dose: 0, 625 MG/L IN DRINKING WATER 5 D/WK FOR 100 WK (STUDY DURATION: 130 WK)) “inactive; negative”; (Species: RAT, Strain/Sex: F344/MALE, Route: INTRAPERITONEAL, Dose: 0, 2 MG/KG 2/WK FOR 9 WK THEN 1.5 MG/KG ONCE IN WK 4 THEN 2/WK FOR 7 WK FOLLOWED BY 1 MG/KG ONCE IN WK 12, TWICE IN WK 1) “inactive; negative”; (Species: RAT, Strain/Sex: F344/MALE, Route: ORAL, Dose: 0, 100, 250, 625 MG/L IN DRINKING WATER 5 D/WK FOR UP TO 120 WK (STUDY DURATION: 130 WK), Dose: 0, 100, 250, 625 MG/L IN DRINKING WATER 5 D/WK FOR UP TO 120 WK (STUDY DURATION: 130 WK)) “inactive; negative”; (Species: RAT, Strain/Sex: SPRAGUE-DAWLEY/FEMALE, Route: GAVAGE, Dose: 0, 0.05, 0.5, 2.5 MG/KG/D IN WATER FOR 102 WK (STUDY DURATION: 24 MO), Dose: 0, 0.05, 0.5, 2.5 MG/KG/D IN WATER FOR 102 WK (STUDY DURATION: 24 MO)) “inactive; negative”; (Species: RAT, Strain/Sex: SPRAGUE-DAWLEY/MALE, Route: GAVAGE, Dose: 0, 0.05, 0.5, 2.5 MG/KG/D IN WATER FOR 102 WK (STUDY DURATION: 24 MO), Dose: 0, 0.05, 0.5, 2.5 MG/KG/D IN WATER FOR 102 WK (STUDY DURATION: 24 MO)) “inactive; negative”.
On to `OCC(Cl)(Cl)Cl`, for which the carcinogen call is “inactive; negative” (Species: MOUSE, Strain/Sex: B6C3F1/FEMALE, Route: INTRAPERITONEAL, Dose: 0, 1000 NMOL TOTAL DOSE, 1/3 AND 2/3 OF THE TOTAL DOSE ADMINISTERED AT 8 AND 15 DAYS OF AGE RESPECTIVELY, ANIMALS TERMIN); “inactive; negative” (Species: MOUSE, Strain/Sex: B6C3F1/FEMALE, Route: INTRAPERITONEAL, Dose: 0, 2000 NMOL TOTAL DOSE, 3/7 AND 4/7 OF THE TOTAL DOSE ADMINISTERED AT 8 AND 15 DAYS OF AGE RESPECTIVELY, ANIMALS TERMIN); “inactive; negative” (Species: MOUSE, Strain/Sex: B6C3F1/MALE, Route: INTRAPERITONEAL, Dose: 0, 1000 NMOL TOTAL DOSE, 1/3 AND 2/3 OF THE TOTAL DOSE ADMINISTERED AT 8 AND 15 DAYS OF AGE RESPECTIVELY, ANIMALS TERMIN); “inactive; negative” (Species: MOUSE, Strain/Sex: B6C3F1/MALE, Route: INTRAPERITONEAL, Dose: 0, 2000 NMOL TOTAL DOSE, 3/7 AND 4/7 OF THE TOTAL DOSE ADMINISTERED AT 8 AND 15 DAYS OF AGE RESPECTIVELY, ANIMALS TERMIN).
Consider `CC1OCCN1N=O` (stereo not given), for which, where the note is “Species: RAT, Strain/Sex: F344/FEMALE, Route: ORAL, Dose: 40 MG/L IN DRINKING WATER FOR 50 WK, Tumor Site: Type of Lesion: LIVER: HEPATOCELLULAR CARCINOMA, HEMANGIOENDOTHELIAL SARCOMA”, the carcinogen call was “active; positive”.
Turning to `O=C1CCc2c1cc1c3c2ccc2cccc(c23)C1`, the carcinogen call (Species: MOUSE, Strain/Sex: T.O./MALE, FEMALE, Route: DERMAL, Dose: 0, 50 UG IN TOLUENE SOLUTION 2 D/WK FOR 39 OR 50 WK (STUDY DURATION: 2 YR), Tumor Site: Type of Lesion: SKIN: PAPILLOMA OR CARCINOMA) was “active; positive”.

The values above are taken from PubChem BioAssay AID1259411 (Chemical Carcinogenesis Research Information System (CCRIS), 2018).
